Experimental data as given in patent publication US8987250B2 (Gilead Sciences, Inc., priority 2012, dated 2015).

Tested on: HIV-IIIb
Assay: Test A: Antiviral Assay in MT4 Cells
Type: cell-based
Conditions: Human immunodeficiency virus 1, IIIB, MT4, 120 h, Table 2; MT-4 cells infected with HIV-IIIb, 5 days of incubation, CellTiter-Glo; read-out: EC50
Protocol: The antiviral properties of a compound of the invention may be determined using Test A described below.
Test A: Antiviral Assay in MT4 Cells
For the antiviral assay utilizing MT-4 cells, 0.4 μL of […] test concentration of 3-fold serially diluted compound in DMSO was added to 40 μL of cell growth medium (RPMI 1640, 10% FBS, 1% penicilline/Streptomycine, 1% L-Glutamine, 1% HEPES) in each well of 384-well assay plates (10 concentrations) in quadruplicate.
One mL aliquots of 2×10e6 MT-4 cells were pre-infected for 1 and 3 hours respectively, @ 37° C. with 25 uL (MT4) or of either cell growth medium (mock-infected) or a fresh 1:250 dilution of an HIV-IIIb concentrated ABI stock (0.004m.o.i. for MT4 cells). Infected and uninfected cells were diluted in cell growth medium and 35 uL of 2000 (for MT4) cells was added to each well of the assay plates.
Assay plates were then incubated in a 37° C. incubator. After 5 days of incubation, […] of 2× concentrated CellTiter-Glo™ Reagent (catalog #G7573, Promega Biosciences, Inc., Madison, Wis.) was added to each well of the assay plate. Cell lysis was carried out by incubating at room temperature for 2-3 min and then chemiluminescence was read using the Envision reader (PerkinElmer). […]

Compound | EC50 [nM]
CCn1cc2cc(-c3cc(-c4nc5cc(C)c([C@H](OC(C)(C)C)C(=O)O)c(-c6ccc(Cl)cc6)c5s4)ccn3)ccc2n1 [Compound 173, (S)-2-tert-butoxy-2-(7-(4-chlorophenyl)-2-(2-(2-ethyl-2H-indazol-5-yl)pyridin-4-yl)-5-methylbenzo[d]thiazol-6-yl)acetic acid] | 11
CCn1ncc2cc(-c3cc(-c4nc5cc(C)c([C@H](OC(C)(C)C)C(=O)O)c(-c6ccc(Cl)cc6)c5s4)ccn3)ccc21 [Compound 174, (S)-2-tert-butoxy-2-(7-(4-chlorophenyl)-2-(2-(1-ethyl-1H-indazol-5-yl)pyridin-4-yl)-5-methylbenzo[d]thiazol-6-yl)acetic acid] | 26
Cc1cc2nc(-c3ccnc(-c4ccc5c(cnn5C5CC5)c4)c3)sc2c(-c2ccc(Cl)cc2)c1[C@H](OC(C)(C)C)C(=O)O [Compound 175, (S)-2-tert-butoxy-2-(7-(4-chlorophenyl)-2-(2-(1-cyclopropyl-1H-indazol-5-yl)pyridin-4-yl)-5-methylbenzo[d]thiazol-6-yl)acetic acid] | 33
Cc1cc2nc(-c3ccnc(-c4ccc5nn(C(F)F)cc5c4)c3)sc2c(-c2ccc(Cl)cc2)c1[C@H](OC(C)(C)C)C(=O)O [Compound 176, (S)-2-tert-butoxy-2-(7-(4-chlorophenyl)-2-(2-(2-(difluoromethyl)-2H-indazol-5-yl)pyridin-4-yl)-5-methylbenzo[d]thiazol-6-yl)acetic acid] | 18
Cc1cc2nc(-c3ccnc(-c4ccc5c(cnn5C(F)F)c4)c3)sc2c(-c2ccc(Cl)cc2)c1[C@H](OC(C)(C)C)C(=O)O [Compound 177, (S)-2-tert-butoxy-2-(7-(4-chlorophenyl)-2-(2-(1-(difluoromethyl)-1H-indazol-5-yl)pyridin-4-yl)-5-methylbenzo[d]thiazol-6-yl)acetic acid] | 39
Cc1cc2nc(-c3ccnc(-c4ccc5c(cnn5C(F)(F)F)c4)c3)sc2c(-c2ccc(Cl)cc2)c1[C@H](OC(C)(C)C)C(=O)O [Compound 178, (S)-2-tert-butoxy-2-(7-(4-chlorophenyl)-5-methyl-2-(2-(1-(trifluoromethyl)-1H-indazol-5-yl)pyridin-4-yl)benzo[d]thiazol-6-yl)acetic acid] | 89
Cc1cc2nc(-c3ccnc(-c4ccc5c(cnn5C5CNC5)c4)c3)sc2c(-c2ccc(Cl)cc2)c1[C@H](OC(C)(C)C)C(=O)O [Compound 179, (S)-2-(2-(2-(1-(azetidin-3-yl)-1H-indazol-5-yl)pyridin-4-yl)-7-(4-chlorophenyl)-5-methylbenzo[d]thiazol-6-yl)-2-tert-butoxyacetic acid] | 73
Cc1cc2nc(-c3ccnc(-c4ccc5c(cnn5C)n4)c3)sc2c(-c2ccc(Cl)cc2)c1[C@H](OC(C)(C)C)C(=O)O [Compound 180, (S)-2-tert-butoxy-2-(7-(4-chlorophenyl)-5-methyl-2-(2-(1-methyl-1H-pyrazolo[4,3-b]pyridin-5-yl)pyridin-4-yl)benzo[d]thiazol-6-yl)acetic acid] | 5
Cc1cc2c(c(-c3ccc(Cl)cc3)c1[C@H](OC(C)(C)C)C(=O)O)n(C1CCN(C)CC1)c(=O)n2C [Compound 181, (S)-2-tert-butoxy-2-(4-(4-chlorophenyl)-1,6-dimethyl-3-(1-methylpiperidin-4-yl)-2-oxo-2,3-dihydro-1H-benzo[d]imidazol-5-yl)acetic acid] | 27
Cc1cc2nc(-c3cccn(-c4ccc5c(cnn5C)c4)c3=O)sc2c(-c2ccc(Cl)cc2)c1[C@H](OC(C)(C)C)C(=O)O [Compound 182, (S)-2-tert-butoxy-2-(7-(4-chlorophenyl)-5-methyl-2-(1-(1-methyl-1H-indazol-5-yl)-2-oxo-1,2-dihydropyridin-3-yl)benzo[d]thiazol-6-yl)acetic acid] | 80
Cc1cc2nc(-c3ccnc(-c4ccc5c(c4)n(C)c(=O)n5C)c3)sc2c(-c2ccc(Cl)cc2)c1[C@H](OC(C)(C)C)C(=O)O [Compound 183, (S)-2-tert-butoxy-2-(7-(4-chlorophenyl)-2-(2-(1,3-dimethyl-2-oxo-2,3-dihydro-1H-benzo[d]imidazol-5-yl)pyridin-4-yl)-5-methylbenzo[d]thiazol-6-yl)acetic acid] | 18
Cc1cc2nc(-c3ccnc(-c4cnc5c(c4)OCC(=O)N5)c3)sc2c(-c2ccc(Cl)cc2)c1[C@H](OC(C)(C)C)C(=O)O [Compound 184, (S)-2-tert-butoxy-2-(7-(4-chlorophenyl)-5-methyl-2-(2-(3-oxo-3,4-dihydro-2H-pyrido[3,2-b][1,4]oxazin-7-yl)pyridin-4-yl)benzo[d]thiazol-6-yl)acetic acid] | 19
Cc1cc2nc(-c3ccnc(-n4ccc5cccnc5c4=O)c3)sc2c(-c2ccc(Cl)cc2)c1[C@H](OC(C)(C)C)C(=O)O [Compound 187, (S)-2-tert-butoxy-2-(7-(4-chlorophenyl)-5-methyl-2-(2-(8-oxo-1,7-naphthyridin-7(8H)-yl)pyridin-4-yl)benzo[d]thiazol-6-yl)acetic acid] | 25
Cc1cc2nc(-c3ccnc(-c4ccc5c(=O)n(C)n(C)c5c4)c3)sc2c(-c2ccc(Cl)cc2)c1[C@H](OC(C)(C)C)C(=O)O [Compound 188, (S)-2-tert-butoxy-2-(7-(4-chlorophenyl)-2-(2-(1,2-dimethyl-3-oxo-2,3-dihydro-1H-indazol-6-yl)pyridin-4-yl)-5-methylbenzo[d]thiazol-6-yl)acetic acid] | 12
Cc1cc2nc(-c3ccnc(-n4ncc5ccccc54)c3)sc2c(-c2ccc(Cl)cc2)c1[C@H](OC(C)(C)C)C(=O)O [Compound 189, (S)-2-(2-(2-(1H-indazol-1-yl)pyridin-4-yl)-7-(4-chlorophenyl)-5-methylbenzo[d]thiazol-6-yl)-2-tert-butoxy acetic acid] | 249
Cc1cc2nc(-c3ccnc(-c4nn(C)c5ccccc45)c3)sc2c(-c2ccc(Cl)cc2)c1[C@H](OC(C)(C)C)C(=O)O [Compound 190, (S)-2-tert-butoxy-2-(7-(4-chlorophenyl)-5-methyl-2-(2-(1-methyl-1H-indazol-3-yl)pyridin-4-yl)benzo[d]thiazol-6-yl)acetic acid] | 112
Cc1cc2nc(-c3ccnc(-c4ccc5c(ccc(=O)n5C)c4)c3)sc2c(-c2ccc(Cl)cc2)c1[C@H](OC(C)(C)C)C(=O)O [Compound 191, (S)-2-tert-butoxy-2-(7-(4-chlorophenyl)-5-methyl-2-(2-(1-methyl-2-oxo-1,2-dihydroquinolin-6-yl)pyridin-4-yl)benzo[d]thiazol-6-yl)acetic acid] | 10
CNc1ccc2cc(-c3cc(-c4nc5cc(C)c([C@H](OC(C)(C)C)C(=O)O)c(-c6ccc(Cl)cc6)c5s4)ccn3)ccc2n1 [Compound 192, (S)-2-tert-butoxy-2-(7-(4-chlorophenyl)-5-methyl-2-(2-(2-(methylamino)quinolin-6-yl)pyridin-4-yl)benzo[d]thiazol-6-yl)acetic acid] | 12
Cc1cc2nc(-c3ccnc(-c4ccc5nc(N)ccc5c4)c3)sc2c(-c2ccc(Cl)cc2)c1[C@H](OC(C)(C)C)C(=O)O [Compound 193, (S)-2-(2-(2-(2-aminoquinolin-6-yl)pyridin-4-yl)-7-(4-chlorophenyl)-5-methylbenzo[d]thiazol-6-yl)-2-tert-butoxyacetic acid] | 9
